Reference: US20240216369A1, “THE USE OF A SPLICING MODULATOR FOR A TREATMENT SLOWING PROGRESSION OF HUNTINGTON'S DISEASE” (Novartis AG, priority 2019, published 2024)

Experiment: Mouse population PK model (plasma)
Assay type: in vivo
Settings: popPK parameters (plasma)
Experimental: For the establishment of the PK/PD relationship and the development of a mouse PK/PD model, the PK parameters in mouse plasma were estimated considering PK data from studies with male C57BL/6 mice (10 mg/kg, single dose), rasH2 mice (1, 3, 4 and 10 mg/kg, repeated daily doses), and BacHD mice (10 and 50 mg/kg, single dose; 12 and 24 mg/kg, repeated, three times a week doses). […] The population PK model was described and executed by Monolix software (Version 2018R1, Lixoft).

Question: With `CC1(C)CC(Oc2ccc(-c3ccc(-c4cn[nH]c4)cc3O)nn2)CC(C)(C)N1` [Compound 18, 5-(1H-pyrazol-4-yl)-2-(6-((2,2,6,6-tetramethylpiperidin-4-yl)oxy)pyridazin-3-yl)phenol] as the molecule, how does the CL/F (C57BL/6, rasH2, BacHD (pooled), other: extra-vascular administration) read?
Answer: 55.8 mL/min/kg

Question: And the Q/F?
Answer: 8.4 mL/min/kg

Question: And the V1?
Answer: 28.2 L/kg

Question: And the V2?
Answer: 32.5 L/kg

Question: What about the ka of the same molecule?
Answer: 0.429 h⁻¹

Question: What about the Tlag (pooled C57BL/6, rasH2 and BacHD data) of the same molecule?
Answer: 0.346 h
